Data on five compounds can be found in patent publication US20240408152A1, “NOVEL ENTEROCOCCUS FAECIUM LCM001 STRAIN, AND USE THEREOF” (MBIOMETHERAPEUTICS CO., LTD., priority 2021, published 2024).

The subject of this assay is human non-small cell lung cancer (NSCLC) A549 cells. The experiment in a line: MTT cell viability assay, lung cancer cells. Type of assay: cell-based. The protocol: The human non-small cell lung cancer (NSCLC) A549 cells were cultured in RPMI 1640 culture medium supplemented with 10% fetal bovine serum (FBS) and 1% penicillin/streptomycin in a incubator at 37° C. in a 5% CO2. Human normal fibroblast lung cell Wi38 were cultured in MEM culture medium supplemented with 10% FBS and 1% penicillin/streptomycin.
The cell viability rate was measured using MTT [3-(4,5-dimethylthiazol-2-yl)-2,5-diphenyl-tetrazolium bromide] assay. Specifically, lung cancer cells (A549, 7×10^3 cells/well), colon cancer cells (HCT-15, 5×10^3 cells/well), liver cancer cells (Sk-hep-1, 5×10^3 cells/well), pancreatic cancer cells (PANC-1, 5×10^3 cells/well), and breast cancer cells (MCF-7, 2×10^3 cells/well) were seeded in a 96-well culture plate at 3 times repeatedly, and cultured overnight at 37° C. in 5% CO2 with RPMI 1640 medium containing 10% FBS. Subsequently, the cell-free supernatant was added to each well at concentrations of 1×, 2×, 5×, and 10×, with 100 μL per well, and cultured for 24 hours at 37° C. in 5% CO2.
To assess cell apoptosis, MTT reagent at a concentration of 5 mg/ml was added to each well with 10 μL per well and reacted for 4 hours at 37° C. in 5% CO2. The cells were then dissolved in dimethyl sulfoxide (DMSO, 100 μL/well), and the absorbance at 570 nm was measured using a microplate reader.
The cell viability rate was calculated as a percentage using the following formula. The cell toxicity test was conducted in triplicate, and the values are presented as mean±standard deviation.
To confirm the efficacy of Cyclo(L-pro-L-tyr), the active ingredient of Enterococcus faecium LCM001, as well as its derivatives on apoptosis of non-small cell lung cancer A549 cells, the inventors conducted an MTT assay on Cyclo(L-pro-L-tyr), Cyclo(L-Phe-L-pro), Cyclo(L-Phe-trans-4-hydroxy-L-Pro), Cyclo(L-Pro-D-Phe), and Cyclo(Tyr-Hpro), and calculated their IC50 values.
On the technique in general: Tetrazolium dyes change colour on reduction, which living cells bring about.

SMILES strings stand for the structures. Values after ≈ are worked out from the molar mass of the structure shown. Like-named read-outs stand apart in the source and are kept apart here.

As for `O=C1NC(Cc2ccc(O)cc2)C(=O)N2CC(O)CC12` (centres unmarked) [Cyclo(Tyr-Hpro)], the IC50 is 119 µg/mL (≈ 431 µM).
Turning to `O=C1NC(Cc2ccc(O)cc2)C(=O)N2CCC[C@@H]12` (stereo partly drawn) [Cyclo(L-pro-L-tyr), Cyclo(L-Pro-L-Tyr)], the IC50 (Homo sapiens, read-out: IC50) came out at 99.6 µg/mL (≈ 382 µM).
Regarding `O=C1N[C@@H](Cc2ccccc2)C(=O)N2CCC[C@@H]12` [Cyclo(L-Phe-L-pro)], the IC50 stood at 26.1 µg/mL (≈ 107 µM).
Take `O=C1N[C@@H](Cc2ccccc2)C(=O)N2C[C@H](O)C[C@@H]12` (relative stereo) [Cyclo(L-Phe-trans-4-hydroxy-L-Pro)]: the IC50 amounted to 57.58 µg/mL (≈ 221 µM).
Still for that read-out and setting: the figure for `O=C1NC(Cc2ccccc2)C(=O)N2CCCC12` [Cyclo(L-Pro-D-Phe)] is 94.56 µg/mL (≈ 387 µM).

In general, IC50 refers to the concentration that gives 50% inhibition.
